The results in this text go back to patent publication US10221163B2 (priority 2015, dated 2019).

The structures appear in SMILES notation. Like-named read-outs stand apart in the source and are kept apart here.

The target in one series is IMP-1 (Serratia marcescens, UniProt P52699). The series is described as follows: biochemical. Format: biochemical. To be noted: fluorescence assay, CCF2-FA substrate, 2 pM enzyme, 2 hours at 25° C.; read-out: IMP-1 IC50. The gist of the method: (§1)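 IC50 values derive from 4-parameter fits of percent inhibition against inhibitor concentration on semi-log axes. Activity was monitored by fluorescence with the CCF2-FA substrate after a 2-hour, 25° C incubation of compound, enzyme and substrate.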

The next series has as its target NDM-1 (Klebsiella pneumoniae, UniProt C7C422). The series is described as follows: biochemical. It counts as biochemical. Particulars: fluorescence assay, CCF2-FA substrate, 1 pM enzyme, 2 hours at 25° C.; read-out: NDM-1 IC50. Put shortly:
as §1

For the next series, the target named is VIM-1 (Pseudomonas aeruginosa (strain ATCC 15692 / DSM 22644 / CIP 104116 / JCM 14847 / LMG 12228 / 1C / PRS 101 / PAO1), UniProt A0A0F7KYQ8). The series can be described thus: biochemical. Particulars: CCF2-FA substrate, 30 pM enzyme, 2 hours at 25° C. The gist of the method: as §1
The subject of series [1] is Escherichia coli expressing NDM-1 (CLB30005, CLB30016). It counts as cell-based. Particulars: NDM-1 strain, with imipenem 1 μg/ml, 95% inhibition of growth. Put shortly: (§2)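 Clinical strains grown overnight on blood agar at 35°C, colonies suspended in saline, diluted 1:100 into 1.1×CAMHB. Test compound titrated with imipenem at 1 μg/ml; incubated 22–24 h at 35°C, growth read by absorbance.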

The test system of series [2] is Klebsiella pneumoniae expressing VIM-1 (IHMA599644). Format: cell-based. To be noted: VIM-1 strain IHMA599644, with imipenem 1 μg/ml, 95% inhibition of growth. Put shortly: as §2
The subject of series [3] is Serratia marcescens expressing IMP-1 (CL5741). It counts as cell-based. To be noted: IMP-1 strain CL5741, with imipenem 1 μg/ml, 95% inhibition of growth. Put shortly: as §2
The subject of series [4] is Pseudomonas aeruginosa efflux+ (MB9798), IMP-1. It counts as cell-based. Particulars: concentration restoring susceptibility to imipenem at 2 μg/mL in the presence of a class A, C, D serine β-lactamase inhibitor closely related to relebactam. The gist of the method:
(§3)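 P. aeruginosa PAO1-derived IMP-1 strains, efflux+ MB9798 and efflux− MB9799, tested by standard microbroth MIC with imipenem and/or ceftazidime fixed, usually at CLSI breakpoint, plus fixed class A/C β-lactamase inhibitor against AmpC. Inhibitor titrated; concentration restoring susceptibility recorded; MB9798/MB9799 fold difference indicates efflux.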

In series [5] the test system is Pseudomonas aeruginosa efflux− (MB9799), IMP-1. It counts as cell-based. Particulars: concentration restoring susceptibility to imipenem at 2 μg/mL in the presence of a class A, C, D serine β-lactamase inhibitor closely related to relebactam. The gist of the method: as §3
Series [6] relates to Pseudomonas aeruginosa MB9798 vs MB9799. To be noted: ratio MITC95 PA_9798/MITC95 PA_9799. The gist of the method: as §3
Where [7] appears, read: fluorescence assay, read-out: VIM-1 IC50.

As usually defined, the IC50 is the concentration at which inhibition is half-maximal.

Chain of NDM-1 (C7C422 whole entry, looked up, species assumed): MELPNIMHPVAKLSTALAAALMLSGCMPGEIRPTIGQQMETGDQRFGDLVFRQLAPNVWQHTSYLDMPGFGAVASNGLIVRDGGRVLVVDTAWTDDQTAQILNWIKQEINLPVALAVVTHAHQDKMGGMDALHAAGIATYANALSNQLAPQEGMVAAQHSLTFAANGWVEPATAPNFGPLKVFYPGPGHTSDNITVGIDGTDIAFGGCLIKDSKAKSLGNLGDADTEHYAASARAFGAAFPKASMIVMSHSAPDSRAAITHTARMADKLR
Chain of IMP-1 (P52699 whole entry, looked up, species assumed): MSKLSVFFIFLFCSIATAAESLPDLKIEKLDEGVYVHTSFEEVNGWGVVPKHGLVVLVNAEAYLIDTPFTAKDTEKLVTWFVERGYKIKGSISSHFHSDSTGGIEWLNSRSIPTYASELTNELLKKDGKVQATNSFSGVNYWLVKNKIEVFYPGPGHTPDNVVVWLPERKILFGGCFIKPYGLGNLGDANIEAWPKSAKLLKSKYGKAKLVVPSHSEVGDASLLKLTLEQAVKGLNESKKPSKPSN

Consider `CC[C@H](CN)NS(=O)(=O)c1ccc(-c2cccc3[nH]c(N)nc23)c(-c2nn[nH]n2)c1S(N)(=O)=O` [Example 265, (R)-4-(2-amino-1H-benzo[d]imidazol-4-yl)-N1-(1-aminobutan-2-yl)-3-(2H-tetrazol-5-yl)benzene-1,2-disulfonamide], for which the IC50 was 0.292 nM at IMP-1, 0.0241 nM at NDM-1 and 0.0927 nM at VIM-1 (setting [7]). Further, the “Escherichia coli MITC95” value in series [1] is 1.563 µM. In addition, the “Klebsiella pneumoniae MITC95” value in series [2] amounted to 1.563 µM. In addition, the “Serratia marcescens MITC95” value in series [3] was 0.7813 µM. Also, the “P. aeruginosa expressing IMP-1, efflux + (MB9798) MITC95” value in [4] came to 0.7813 µM. For the same compound, the “P. aeruginosa expressing IMP-1, efflux − (MB9799) MITC95” value in series [5] stood at 0.7813 µM. For the same compound, in series [6], the Efflux ratio is 1.00.

As for `C[C@H](CCN)NS(=O)(=O)c1ccc(-c2cccc3[nH]c(N)nc23)c(-c2nn[nH]n2)c1S(N)(=O)=O` [Example 266, (R)-4-(2-amino-1H-benzo[d]imidazol-4-yl)-N1-(4-aminobutan-2-yl)-3-(2H-tetrazol-5-yl)benzene-1,2-disulfonamide], the IC50 on IMP-1 worked out at 0.477 nM; at NDM-1, 0.0282 nM; on VIM-1 (setting [7]) it was 0.115 nM. In addition, the “Escherichia coli MITC95” value in [1] amounted to 0.7813 µM. Further, in [2], the “Klebsiella pneumoniae MITC95” value came to 0.7813 µM. The “Serratia marcescens MITC95” value in series [3] is 0.7813 µM. Also, the “P. aeruginosa expressing IMP-1, efflux + (MB9798) MITC95” value in series [4] was found to be 0.3906 µM. In addition, the “P. aeruginosa expressing IMP-1, efflux − (MB9799) MITC95” value in series [5] came out at 0.7813 µM. Moreover, the Efflux ratio in [6] is recorded as 0.50.

Turning to `C[C@@H](CCN)NS(=O)(=O)c1ccc(-c2cccc3[nH]c(N)nc23)c(-c2nn[nH]n2)c1S(N)(=O)=O` [Example 267, (S)-4-(2-amino-1H-benzo[d]imidazol-4-yl)-N1-(4-aminobutan-2-yl)-3-(2H-tetrazol-5-yl)benzene-1,2-disulfonamide], the results for the IC50 at IMP-1, on NDM-1 and at VIM-1 (setting [7]) were 1.63 nM, 0.179 nM and 0.279 nM, respectively. Moreover, in series [1], the “Escherichia coli MITC95” value was 0.7813 µM. For the same compound, the “Klebsiella pneumoniae MITC95” value in [2] came to 1.563 µM. The “Serratia marcescens MITC95” value in [3] worked out at 1.563 µM. For the same compound, in series [4], the “P. aeruginosa expressing IMP-1, efflux + (MB9798) MITC95” value stood at 0.7813 µM. Also, the “P. aeruginosa expressing IMP-1, efflux − (MB9799) MITC95” value in [5] is 0.7813 µM. In addition, the Efflux ratio in series [6] was 1.00.

For the compound `NCCN1CC[C@H](NS(=O)(=O)c2ccc(-c3cccc4[nH]c(N)nc34)c(-c3nn[nH]n3)c2S(N)(=O)=O)C1` [Example 268, (S)-4-(2-amino-1H-benzo[d]imidazol-4-yl)-N1-(1-(2-aminoethyl)pyrrolidin-3-yl)-3-(2H-tetrazol-5-yl)benzene-1,2-disulfonamide], the IC50 at IMP-1 was 1.1 nM; on NDM-1 it was 0.0612 nM; on VIM-1 (VIM-1 IC50, fluorescence assay), 0.15 nM. Besides, the “Escherichia coli MITC95” value in series [1] stood at 0.7813 µM. For the same compound, the “Klebsiella pneumoniae MITC95” value in [2] amounted to 1.563 µM. In addition, the “Serratia marcescens MITC95” value in series [3] worked out at 1.563 µM. In series [4], the “P. aeruginosa expressing IMP-1, efflux + (MB9798) MITC95” value was found to be 0.7813 µM. Also, the “P. aeruginosa expressing IMP-1, efflux − (MB9799) MITC95” value in series [5] is 0.7813 µM. Further, the Efflux ratio in series [6] is reported as 1.00.

On to `NCC(=O)NC1CCC[C@@H](c2ccc(S(=O)(=O)N[C@@H]3CCNC3)c(S(N)(=O)=O)c2-c2nn[nH]n2)C1` (stereo partly drawn) [Example 270, 2-Amino-N-((3R)-3-(4-(N—((R)-pyrrolidin-3-yl)sulfamoyl)-3-sulfamoyl-2-(2H-tetrazol-5-yl)phenyl)cyclohexyl)acetamide], for which the figures for the IC50 at IMP-1, at NDM-1 and at VIM-1 (setting [7]) were 2.32 nM, 0.244 nM and 0.202 nM, respectively. Also, the “Escherichia coli MITC95” value in [1] came to 1.563 µM. For the same compound, the “Klebsiella pneumoniae MITC95” value in series [2] came to 3.125 µM. In addition, the “Serratia marcescens MITC95” value in [3] was found to be 3.125 µM. In series [4], the “P. aeruginosa expressing IMP-1, efflux + (MB9798) MITC95” value worked out at 1.563 µM. Besides, in series [5], the “P. aeruginosa expressing IMP-1, efflux − (MB9799) MITC95” value is 1.563 µM. The Efflux ratio in series [6] is given as 1.00.

As for `NC(=O)c1nc2c(-c3ccc(S(=O)(=O)N[C@@H]4CCNC4)c(S(N)(=O)=O)c3-c3nn[nH]n3)cccc2[nH]1` [Example 271, (R)-4-(4-(N-(pyrrolidin-3-yl)sulfamoyl)-3-sulfamoyl-2-(2H-tetrazol-5-yl)phenyl)-1H-benzo[d]imidazole-2-carboxamide], the IC50 was determined as 0.271 nM on IMP-1, 0.0196 nM on NDM-1 and 0.0989 nM at VIM-1 (setting [7]). Moreover, the “Escherichia coli MITC95” value in series [1] stood at 1.563 µM. Also, the “Klebsiella pneumoniae MITC95” value in series [2] was found to be 3.125 µM. The “Serratia marcescens MITC95” value in series [3] is 0.7813 µM. The “P. aeruginosa expressing IMP-1, efflux + (MB9798) MITC95” value in series [4] amounted to 0.7813 µM. Besides, the “P. aeruginosa expressing IMP-1, efflux − (MB9799) MITC95” value in series [5] came out at 1.563 µM. Further, in series [6], the Efflux ratio amounted to 0.50.

For `C[C@H](N)c1nc2c(-c3ccc(S(=O)(=O)N[C@@H]4CCNC4)c(S(N)(=O)=O)c3-c3nn[nH]n3)cccc2[nH]1` [Example 272, 4-(2-((S)-1-aminoethyl)-1H-benzo[d]imidazol-4-yl)-N1-((R)-pyrrolidin-3-yl)-3-(2H-tetrazol-5-yl)benzene-1,2-disulfonamide], the figures for the IC50 at IMP-1, at NDM-1 and on VIM-1 (setting [7]) were 1.36 nM, 0.0667 nM and 0.11 nM, respectively. For the same compound, the “Escherichia coli MITC95” value in [1] was 3.125 µM. Also, the “Klebsiella pneumoniae MITC95” value in series [2] worked out at 1.563 µM. Besides, the “Serratia marcescens MITC95” value in series [3] came out at 1.563 µM. Moreover, the “P. aeruginosa expressing IMP-1, efflux + (MB9798) MITC95” value in [4] amounted to 1.563 µM. In addition, the “P. aeruginosa expressing IMP-1, efflux − (MB9799) MITC95” value in series [5] was 0.7813 µM. Also, in series [6], the Efflux ratio is given as 2.00.

For `C[C@@H](N)c1nc2c(-c3ccc(S(=O)(=O)N[C@@H]4CCNC4)c(S(N)(=O)=O)c3-c3nn[nH]n3)cccc2[nH]1` [Example 273, 4-(2-((R)-1-aminoethyl)-1H-benzo[d]imidazol-4-yl)-N1-((R)-pyrrolidin-3-yl)-3-(2H-tetrazol-5-yl)benzene-1,2-disulfonamide], the results for the IC50 at IMP-1, on NDM-1 and on VIM-1 (setting [7]) were 1.41 nM, 0.0565 nM and 0.124 nM, respectively. Further, the “Escherichia coli MITC95” value in [1] came to 1.563 µM. Besides, the “Klebsiella pneumoniae MITC95” value in series [2] is 1.563 µM. For the same compound, the “Serratia marcescens MITC95” value in [3] was found to be 1.563 µM. For the same compound, the “P. aeruginosa expressing IMP-1, efflux + (MB9798) MITC95” value in [4] turned out to be 0.7813 µM. In addition, in series [5], the “P. aeruginosa expressing IMP-1, efflux − (MB9799) MITC95” value was found to be 0.7813 µM. The Efflux ratio in series [6] is recorded as 1.00.

As to `NCc1nc2cc(-c3ccc(S(=O)(=O)N[C@@H]4CCNC4)c(S(N)(=O)=O)c3-c3nn[nH]n3)ccc2[nH]1` [Example 274, (R)-4-(2-(aminomethyl)-1H-benzo[d]imidazol-5-yl)-N1-(pyrrolidin-3-yl)-3-(2H -tetrazol-5-yl)benzene-1,2-disulfonamide], the results for the IC50 at IMP-1, at NDM-1 and on VIM-1 (setting [7]) were 0.486 nM, 0.0833 nM and 0.102 nM, respectively. For the same compound, the “Escherichia coli MITC95” value in [1] stood at 0.7813 µM. For the same compound, the “Klebsiella pneumoniae MITC95” value in [2] turned out to be 1.563 µM. Moreover, the “Serratia marcescens MITC95” value in series [3] is 1.563 µM. Besides, the “P. aeruginosa expressing IMP-1, efflux + (MB9798) MITC95” value in series [4] came to 0.7813 µM. For the same compound, the “P. aeruginosa expressing IMP-1, efflux − (MB9799) MITC95” value in series [5] stood at 0.7813 µM. In series [6], the Efflux ratio is 1.00.

Take `NCc1nc2cc(-c3ccc(S(=O)(=O)N[C@@H]4CCNC4)c(S(N)(=O)=O)c3-c3nn[nH]n3)ccc2s1` [Example 275, (R)-4-(2-(aminomethyl)benzo[d]thiazol-5-yl)-N^1-(pyrrolidin-3-yl)-3-(2H-tetrazol-5-yl)benzene-1,2-disulfonamide]: the IC50 on IMP-1 is 0.171 nM; at NDM-1 it was 0.0633 nM; at VIM-1 (VIM-1 IC50, fluorescence assay) it was 0.0902 nM. Further, in [1], the “Escherichia coli MITC95” value was determined as 0.7813 µM. The “Klebsiella pneumoniae MITC95” value in series [2] was found to be 1.563 µM. In addition, in series [3], the “Serratia marcescens MITC95” value was 0.7813 µM. Besides, in series [4], the “P. aeruginosa expressing IMP-1, efflux + (MB9798) MITC95” value was 0.7813 µM. Further, in series [5], the “P. aeruginosa expressing IMP-1, efflux − (MB9799) MITC95” value stood at 0.7813 µM. For the same compound, the Efflux ratio in series [6] is 1.00.
